This is an account of results in patent US6914064B2, “1,4-Disubstituted piperazine derivatives useful as uro-selective α1-adrenoceptor blockers” (Ranbaxy Laboratories Limited, priority 2000, dated 2005).

Broadly, the melting point is the temperature, or range, at which the solid turns liquid.

Each structure is given as a SMILES string. Structures can show the parent of a compound that is named as a salt.

In the case of `Cc1ccccc1N1CCN(CCCN2C(=O)[C@H]3CC=CC[C@H]3C2=O)CC1` (as salt: hydrochloride) [Compound 03, 2-[3-{4-(2-Methylphenyl)piperazin-1-yl}propyl]-3a,4,7,7a-tetrahydro-1H-isoindole-1,3(2H)-dione hydrochlolide], the melting point lay within 186 to 187 °C.
With `O=C1[C@H]2CC=CC[C@H]2C(=O)N1CCCN1CCN(C(c2ccc(F)cc2)c2ccc(F)cc2)CC1` (as salt: hydrochloride) [Compound 19, 2-[3-{4-(Bis-4-fluorophenyl)methylpiperazin-1-yl}propyl]-3a,4,7,7a-tetrahydro-1H-isoindole-1,3(2H)-dione hydrochloride] the figure was 235 to 236 °C.
